Results from patent publication US11702404B2, “GLP-1R modulating compounds” (priority 2019, dated 2023).

Experiments:
[1] = biological target: GLP-1R (Homo sapiens, UniProt P43220); assay: GLP-1R activation: cAMP increase in CHO cells stably expressing GLP-1R; assay type: cell-based; conditions: cAMP increase, CHO cells stably expressing GLP-1R, 10 point dose response, 30 minutes incubation; read-out: EC50
[2] = Microsomal stability, human liver microsomes (predicted hepatic clearance); conditions: predicted from in vitro microsomal stability data

Chain of GLP-1R (P43220 24-463): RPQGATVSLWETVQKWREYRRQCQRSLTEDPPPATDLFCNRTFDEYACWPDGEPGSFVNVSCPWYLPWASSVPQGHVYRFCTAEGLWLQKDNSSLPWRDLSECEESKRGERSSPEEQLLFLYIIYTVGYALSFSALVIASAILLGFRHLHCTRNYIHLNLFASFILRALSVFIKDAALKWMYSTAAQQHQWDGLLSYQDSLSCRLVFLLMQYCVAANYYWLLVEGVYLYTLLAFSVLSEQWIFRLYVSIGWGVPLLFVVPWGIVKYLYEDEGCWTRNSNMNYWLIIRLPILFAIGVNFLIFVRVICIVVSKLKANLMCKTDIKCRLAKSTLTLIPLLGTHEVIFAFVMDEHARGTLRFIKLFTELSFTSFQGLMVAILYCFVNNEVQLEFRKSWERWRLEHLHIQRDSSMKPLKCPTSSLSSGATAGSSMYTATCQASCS

SMILES | EC50 [1] | Predicted Hepatic Clearance (Pred. Cl.) [2]
N#CCC1(Cn2c(Cn3ccc(-c4cccc(OCc5ccc(C#N)cc5F)n4)cc3=O)nc3ccc(C(=O)O)cc32)CC1 [Example 422, 2-((6-((4-cyano-2-fluorobenzyl)oxy)-2′-oxo-[2,4′-bipyridin]-1′(2′H)-yl)methyl)-1-((1-(cyanomethyl)cyclopropyl)methyl)-1H-benzo[d]imidazole-6-carboxylic acid] | 0.87 nM | 2.67 mL/min/kg
N#Cc1ccc(COc2cccc(-c3ccn(Cc4nc5ccc(C(=O)O)cc5n4C[C@@H]4CCO4)c(=O)c3)n2)c(F)c1 [Example 423, (S)-2-((6-((4-cyano-2-fluorobenzyl)oxy)-2′-oxo-[2,4′-bipyridin]-1′(2′H)-yl)methyl)-1-(oxetan-2-ylmethyl)-1H-benzo[d]imidazole-6-carboxylic acid] | 4.12 nM | <1.83 mL/min/kg
N#Cc1ccc(COc2cccc(-c3ccn(Cc4nc5ccc(C(=O)O)cc5n4CC4(CF)CC4)c(=O)c3)n2)c(F)c1 [Example 424, 2-((6-((4-cyano-2-fluorobenzyl)oxy)-2′-oxo-[2,4′-bipyridin]-1′(2′H)-yl)methyl)-1-((1-(fluoromethyl)cyclopropyl)methyl)-1H-benzo[d]imidazole-6-carboxylic acid] | 15.7 nM | 2.33 mL/min/kg
COCCn1c(Cc2ccc(-c3cccc(OCc4ccc(C#N)cc4F)n3)cc2CO)nc2ccc(C(=O)O)cc21 [Example 425, 2-(4-(6-((4-cyano-2-fluorobenzyl)oxy)pyiridn-2-yl)-2-(hydroxymethyl)benzyl)-1-(2-methoxyethyl)-1H-benzo[d]imidazole-6-carboxylic acid] | 4.29 nM | 6.7 mL/min/kg
COc1cc(C#N)ccc1COc1cccc(-c2cc(F)c(Cc3nc4ccc(C(=O)O)cc4n3CC3(CC#N)CC3)cc2F)n1 [Example 427, 2-(4-(6-((4-cyano-2-methoxybenzyl)oxy)pyridin-2-yl)-2,5-difluorobenzyl)-1-((1-(cyanomethyl)cyclopropyl)methyl)-1H-benzo[d]imidazole-6-carboxylic acid] | 0.06 nM | <1.83 mL/min/kg
COc1cc(C#N)ccc1COc1nccc(-c2cc(F)c(Cc3nc4ccc(C(=O)O)cc4n3CC3(CF)CC3)cc2F)n1 [Example 430, 2-(4-(2-((4-cyano-2-methoxybenzyl)oxy)pyrimidin-4-yl)-2,5-difluorobenzyl)-1-((1-(fluoromethyl)cyclopropyl)methyl)-1H-benzo[d]imidazole-6-carboxylic acid] | 0.67 nM | <1.83 mL/min/kg
O=C(O)c1ccc2nc(Cc3cc(F)c(-c4ccnc(OCc5ccc(Cl)cc5F)n4)cc3F)n(CC3(CF)CC3)c2c1 [Example 433, 2-(4-(2-((4-chloro-2-fluorobenzyl)oxy)pyrimidin-4-yl)-2,5-difluorobenzyl)-1-((1-(fluoromethyl)cyclopropyl)methyl)-1H-benzo[d]imidazole-6-carboxylic acid] | 0.64 nM | <1.83 mL/min/kg
COCCn1c(Cn2cc(F)c(-c3cccc(OCc4ccc(C#N)cc4F)n3)cc2=O)nc2ccc(C(=O)O)cc21 [Example 434] | 2.86 nM | 3.17 mL/min/kg
COCCn1c(Cc2ccc(-c3cccc(OCc4c(F)cc(Cl)cc4OC)n3)cc2F)nc2ccc(C(=O)O)cc21 [Example 435, 2-(4-(6-((4-chloro-2-fluoro-6-methoxybenzyl)oxy)pyridin-2-yl)-2-fluorobenzyl)-1-(2-methoxyethyl)-1H-benzo[d]imidazole-6-carboxylic acid] | 8.7 nM | 6.17 mL/min/kg
COCCn1c(Cc2cc(F)c(-c3cccc(OCc4ccc(C#N)cc4OC)n3)cc2F)nc2ccc(C(=O)O)cc21 [Example 436, 2-(4-(6-((4-cyano-2-methoxybenzyl)oxy)pyridin-2-yl)-2,5-difluorobenzyl)-1-(2-methoxyethyl)-1H-benzo[d]imidazole-6-carboxylic acid] | 0.44 nM | <1.83 mL/min/kg
COCCn1c(Cn2c(C)cc(-c3cccc(OCc4ccc(C#N)cc4F)n3)cc2=O)nc2ccc(C(=O)O)cc21 [Example 437, 2-((6-((4-cyano-2-fluorobenzyl)oxy)-6′-methyl-2′-oxo-[2,4′-bipyridin]-1′(2′H)-yl)methyl)-1-(2-methoxyethyl)-1H-benzo[d]imidazole-6-carboxylic acid] | 69.8 nM | 2.67 mL/min/kg
COCCn1c(Cc2ccc(-c3cccc(OCc4ccc(C#N)cc4F)n3)cc2C#CC2CCOCC2)nc2ccc(C(=O)O)cc21 [Example 438, 2-(4-(6-((4-cyano-2-fluorobenzyl)oxy)pyridin-2-yl)-2-((tetrahydro-2H-pyran-4-yl)ethynyl)benzyl)-1-(2-methoxyethyl)-1H-benzo[d]imidazole-6-carboxylic] | 64.7 nM | 18.7 mL/min/kg

More lines, now with the values ahead:

EC50 [1] | Predicted Hepatic Clearance (Pred. Cl.) [2] | SMILES
2.34 nM | 4.6 mL/min/kg | COCCn1c(Cc2cc(F)c(-c3cccc(OCc4ccc(C#N)cc4F)n3)cc2F)nc2ccc(C(=O)O)cc21 [Example 426, 2-(4-(6-((4-cyano-2-fluorobenzyl)oxy)pyridin-2-yl)-2,5-difluorobenzyl)-1-(2-methoxyethyl)-1H-benzo[d]imidazole-6-carboxylic acid]
0.13 nM | 8.92 mL/min/kg | N#CCC1(Cn2c(Cc3cc(F)c(-c4cccc(OCc5ccc(C#N)cc5F)n4)cc3F)nc3ccc(C(=O)O)cc32)CC1 [Example 428, 2-(4-(6-((4-cyano-2-fluorobenzyl)oxy)pyridin-2-yl)-2,5-difluorobenzyl)-1-((1-(cyanomethyl)cyclopropyl)methyl)-1H-benzo[d]imidazole-6-carboxylic acid]
0.61 nM | 3.83 mL/min/kg | N#Cc1ccc(COc2cccc(-c3cc(F)c(Cc4nc5ccc(C(=O)O)cc5n4CC4(CF)CC4)cc3F)n2)c(F)c1 [Example 429, 2-(4-(6-((4-cyano-2-fluorobenzyl)oxy)pyridin-2-yl)-2,5-difluorobenzyl)-1-((1-(fluoromethyl)cyclopropyl)methyl)-1H-benzo[d]imidazole-6-carboxylic acid]
0.73 nM | 3.83 mL/min/kg | N#Cc1ccc(COc2nccc(-c3cc(F)c(Cc4nc5ccc(C(=O)O)cc5n4CC4(CF)CC4)cc3F)n2)c(F)c1 [Example 431, 2-(4-(2-((4-cyano-2-fluorobenzyl)oxy)pyrimidin-4-yl)-2,5-difluorobenzyl)-1-((1-(fluoromethyl)cyclopropyl)methyl)-1H-benzo[d]imidazole-6-carboxylic acid]
2.01 nM | <1.83 mL/min/kg | O=C(O)c1ccc2nc(Cc3cc(F)c(-c4cccc(OCc5ccc(Cl)cc5F)n4)cc3F)n(CC3(CF)CC3)c2c1 [Example 432, 2-(4-(6-((4-chloro-2-fluorobenzyl)oxy)pyridin-2-yl)-2,5-difluorobenzyl)-1-((1-(fluoromethyl)cyclopropyl)methyl)-1H-benzo[d]imidazole-6-carboxylic acid]
